Experimental data as given in ChEMBL document CHEMBL1201862, “PubChem BioAssay data set” (2004).
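Five compound concentrations were applied to cells in 96-well plates for 48 hours; endpoints were derived by simple linear interpolation of the resulting dose-response curve. The concentration for 50% growth inhibition is given as GI50.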 Calls of active or inactive are those of the source. Rule as the data show it: active = GI50 up to about 1.1 µM and inactive = higher.

Tests used:
Experiment in all cases: NCI tumour cell line growth inhibition, 48 h
[1] = system: HT-29
[2] = system: RXF 393
[3] = system: M14
[4] = system: OVCAR-3
[5] = system: HCT-15
[6] = system: COLO 205
[7] = system: SF-295
[8] = system: UACC-62
[9] = system: EKVX
[10] = system: UO-31
[11] = system: NCI-H23
[12] = system: NCI-H226
[13] = system: SK-MEL-2
[14] = system: CCRF-CEM
[15] = system: SK-MEL-28
[16] = system: OVCAR-8
[17] = system: HL-60

SMILES	GI50 [1]	GI50 [2]	GI50 [3]	GI50 [4]	GI50 [5] [µM]	GI50 [6]	GI50 [7]	GI50 [8]	GI50 [9]	GI50 [10]	GI50 [11]	GI50 [12]	GI50 [13]	GI50 [14]	GI50 [15]	GI50 [16]	GI50 [17]
N#CCCN(CCC#N)c1ccc(/C=C(/NC(=O)c2cc([N+](=O)[O-])ccc2Cl)C(=O)NN)cc1	> 100 µM (inactive)	> 100 µM (inactive)	> 100 µM (inactive)	77.8 µM (inactive)	> 100	> 100 µM (inactive)	> 100 µM (inactive)	> 100 µM (inactive)	> 100 µM (inactive)	> 100 µM (inactive)	> 100 µM (inactive)	> 100 µM (inactive)	> 100 µM (inactive)	47.5 µM (inactive)	> 100 µM (inactive)	58.3 µM (inactive)	–
CC(=O)Oc1c(-c2ccccc2)[nH]c2cc([N+](=O)[O-])c(/C(Cl)=C/c3ccccc3)cc12	3.2 µM (inactive)	–	7.73 µM (inactive)	7.66 µM (inactive)	–	4 µM (inactive)	4.08 µM (inactive)	4.24 µM (inactive)	8.53 µM (inactive)	8 µM (inactive)	2.47 µM (inactive)	4 µM (inactive)	9.57 µM (inactive)	3.61 µM (inactive)	6.37 µM (inactive)	4.3 µM (inactive)	2.84 µM (inactive)
Cc1ccccc1C(=O)Oc1ccc(OCc2ccccc2)cc1	63.8 µM (inactive)	39.1 µM (inactive)	> 100 µM (inactive)	> 100 µM (inactive)	38.6	> 100 µM (inactive)	> 100 µM (inactive)	83.8 µM (inactive)	> 100 µM (inactive)	37.2 µM (inactive)	66.8 µM (inactive)	–	–	22.2 µM (inactive)	> 100 µM (inactive)	> 100 µM (inactive)	5.82 µM (inactive)
Nc1ccc2ncc(Nc3ccc(F)cc3)nc2c1	> 100 µM (inactive)	–	> 100 µM (inactive)	> 100 µM (inactive)	> 100	> 100 µM (inactive)	> 100 µM (inactive)	–	> 100 µM (inactive)	99.3 µM (inactive)	> 100 µM (inactive)	37.5 µM (inactive)	> 10 µM (inactive)	56.8 µM (inactive)	> 100 µM (inactive)	> 100 µM (inactive)	> 100 µM (inactive)
O=C(CC/C(CC(=O)c1ccc(Cl)cc1)=N/O)Nc1ccc(Cl)c(Cl)c1	> 100 µM (inactive)	–	> 100 µM (inactive)	> 100 µM (inactive)	48.1	> 100 µM (inactive)	> 100 µM (inactive)	18.3 µM (inactive)	10.3 µM (inactive)	98.4 µM (inactive)	45.5 µM (inactive)	> 100 µM (inactive)	38.3 µM (inactive)	> 100 µM (inactive)	> 100 µM (inactive)	> 100 µM (inactive)	> 100 µM (inactive)
NC(=O)C12CC3CC(CC(F)(C3)C1)C2	> 100 µM (inactive)	> 100 µM (inactive)	> 100 µM (inactive)	> 100 µM (inactive)	–	> 100 µM (inactive)	–	> 100 µM (inactive)	> 100 µM (inactive)	> 100 µM (inactive)	> 100 µM (inactive)	–	> 100 µM (inactive)	> 100 µM (inactive)	> 100 µM (inactive)	> 100 µM (inactive)	> 100 µM (inactive)
O=C1C2=C(c3ccccc31)C(c1ccccc1Cl)N1C(=O)CSC1=N2 (stereo not drawn)	> 100 µM (inactive)	–	> 100 µM (inactive)	87.3 µM (inactive)	83.4	> 100 µM (inactive)	83.4 µM (inactive)	59.4 µM (inactive)	> 100 µM (inactive)	54 µM (inactive)	85.7 µM (inactive)	> 100 µM (inactive)	> 100 µM (inactive)	44.3 µM (inactive)	49.3 µM (inactive)	> 100 µM (inactive)	45.6 µM (inactive)
Nc1nc(N)c(CCCCc2ccccc2)c(/C=C/c2ccc([N+](=O)[O-])cc2)n1	0.925 µM (active)	–	1.89 µM (inactive)	2.43 µM (inactive)	1.25	3.39 µM (inactive)	1.42 µM (inactive)	2.07 µM (inactive)	4.44 µM (inactive)	1.91 µM (inactive)	3.86 µM (inactive)	26.1 µM (inactive)	2.79 µM (inactive)	1.69 µM (inactive)	3.33 µM (inactive)	2.59 µM (inactive)	1.35 µM (inactive)
CC(=O)OCC1OC(n2c(=S)n(-c3ccccc3)c(=O)c3cc(Br)ccc32)C(OC(C)=O)C1OC(C)=O (stereo not drawn)	> 100 µM (inactive)	> 100 µM (inactive)	> 100 µM (inactive)	> 100 µM (inactive)	> 100	> 100 µM (inactive)	> 100 µM (inactive)	> 100 µM (inactive)	> 100 µM (inactive)	> 100 µM (inactive)	> 100 µM (inactive)	> 100 µM (inactive)	> 100 µM (inactive)	–	> 100 µM (inactive)	> 100 µM (inactive)	–
[O-][S+]1[C@H](c2ccccc2)c2c(-c3ccccc3)sc(-c3ccccc3)c2[C@@H]1c1ccccc1 (stereo partly drawn)	41 µM (inactive)	23.1 µM (inactive)	85.9 µM (inactive)	> 100 µM (inactive)	7.1	23.1 µM (inactive)	> 100 µM (inactive)	39.6 µM (inactive)	0.286 µM (active)	65.6 µM (inactive)	6.55 µM (inactive)	–	32.7 µM (inactive)	89.7 µM (inactive)	96.6 µM (inactive)	8.75 µM (inactive)	4.31 µM (inactive)
Cc1ccc(S(=O)(=O)C2=c3nc4ccccc4cc3=C3C(=O)c4ccccc4C(=O)C32)cc1 (stereo not drawn)	–	–	> 100 µM (inactive)	> 100 µM (inactive)	> 100	> 100 µM (inactive)	–	> 100 µM (inactive)	> 100 µM (inactive)	> 100 µM (inactive)	> 100 µM (inactive)	> 100 µM (inactive)	> 100 µM (inactive)	> 100 µM (inactive)	> 100 µM (inactive)	> 100 µM (inactive)	> 100 µM (inactive)
O=C(O)CCN(CCCCN(CCC(=O)O)CCC(=O)O)CCC(=O)O	> 100 µM (inactive)	–	> 100 µM (inactive)	> 100 µM (inactive)	> 100	> 100 µM (inactive)	> 100 µM (inactive)	> 100 µM (inactive)	> 100 µM (inactive)	–	> 100 µM (inactive)	–	> 100 µM (inactive)	> 100 µM (inactive)	> 100 µM (inactive)	> 100 µM (inactive)	> 100 µM (inactive)
COc1cc2ccc(/C(C)=N/OC(C)=O)cc2cc1OC	64.3 µM (inactive)	25.4 µM (inactive)	> 100 µM (inactive)	34.1 µM (inactive)	> 100	> 100 µM (inactive)	49.9 µM (inactive)	20.8 µM (inactive)	3.58 µM (inactive)	34.7 µM (inactive)	> 100 µM (inactive)	53.6 µM (inactive)	81.3 µM (inactive)	66.5 µM (inactive)	> 100 µM (inactive)	> 100 µM (inactive)	–
